The record followed here is patent publication US20230015532A1, “PHARMACEUTICAL COMPOSITION, FOR PREVENTING OR TREATING FIBROSIS, COMPRISING PHEOPHORBIDE COMPOUND AS ACTIVE INGREDIENT” (PAEAN BIOTECHNOLOGY INC., priority 2019, published 2023).

Experiment [1] has as its system α-SMA, CTGF and NOX4 genes in CCD8-Lu cells. As to the kind of experiment: Comparison of anti-fibrotic activity by quantitative real-time PCR (Experimental Example 4.1). It is filed as cell-based, human. To be noted: 2.5 μM and 5 μM; 6 hours after 5 ng/ml TGF-β, 18 hours; qRT-PCR. The method, then:
A cell-based analysis experiment was performed to analyze the anti-fibrotic activity of pheophorbide a obtained in Preparation Example 2 in comparison with nintedanib and pirfenidone, which were previously approved as a therapeutic agent for pulmonary fibrosis, using quantitative real-time polymerase chain reaction.
CCD8-Lu cells, which are human lung-derived fibroblasts, were cultured in the DMEM medium containing 10% FBS. About 2×10^5 cells were then inoculated into a 6 well plate, cultured for 24 hours, and subjected to the deficient condition in the DMEM medium from which FBS was removed for about 24 hours.
24 hours later, following the treatment with TGF-β at a concentration of 5 ng/ml, fibrosis of cells was induced for 6 hours. After 6 hours, the cells were treated with pheophorbide a obtained in Preparation Example 2 or the therapeutic agent for pulmonary fibrosis and further cultured for 18 hours. […]
The supernatant was separated, added with the same volume of isopropyl alcohol and centrifuged at 12,000×g for 10 minutes. […] After drying, about 50 μl of RNAase-free purified distilled water was added thereto, and the quantity and purity of the obtained RNA was measured using a spectrophotometer. […]
After the cDNA synthesis reaction was completed, the reverse transcriptase was inactivated by heating at 72° C. for 5 minutes, and then RNase H was added to remove the […] RNA and obtain the final cDNA. Whether the expression of the alpha-smooth muscle actin gene, which is a characteristic gene of myofibroblasts, the CCN2 (or CTGF) gene, which is a characteristic gene for fibrosis, fibronectin, which is a characteristics gene for fibrosis, and the NOX4 (NADPH oxidase 4) gene known as a major regulator of the amount of reactive oxygen species was changed was observed through quantitative real-time polymerase chain reaction. The GAPDH gene was quantified together to correct differences in expression.
(In qPCR the cycle at which signal appears reflects the starting amount.)

Experiment [2] concerns collagen 1A in CCD8-Lu cells. The experiment in a line: Comparison of anti-fibrotic activity by immunocytochemistry staining (Experimental Example 4.3). It is filed as cell-based, human. To be noted: 2.5 μM and 5 μM; 6 hours after 5 ng/ml TGF-β; fluorescence intensity. How it is done:
A cell-based analysis experiment was performed to analyze the anti-fibrotic activity of pheophorbide a in comparison with nintedanib and pirfenidone, which were previously approved as a therapeutic agent for pulmonary fibrosis, using immunocytochemistry staining method. CCD8-Lu cells, which are human lung-derived fibroblasts, were cultured in the DMEM medium containing 10% FBS. About 2×10^4 cells were then inoculated into a 24 well plate and cultured for 24 hours, and subjected to the deficient condition in the DMEM medium from which FBS was removed for about 24 hours. After 24 hours, following the treatment with TGF-β at a concentration of 5 ng/ml, fibrosis of cells was induced for 6 hours. After 6 hours, the cells were treated with 2.5 μM or 5 μM of pheophorbide a, 1 μM of nintedanib, or 1 mM of pirfenidone. Immunohistochemistry analysis for each sample was performed as follows. First, the sample was washed twice with a PBS buffer, and then 4% formaldehyde was added to fix for 1 hour, and anti-collagen 1A was used as a primary antibody and Alexa Fluor 488 was used as a secondary antibody. The nuclei were stained using DAPI (4,6-diamidino-2-phenylindole) and the difference in the intensity of fluorescence was analyzed using a fluorescence microscope.

Experiment [3] concerns pulmonary fibrosis induced by bleomycin (BLM) in C57BL/6NCr10ri mice. As to the kind of experiment: Bleomycin-induced pulmonary fibrosis model mice. Format: in vivo. To be noted: oral once daily Day 1 to Day 21, 1.25-80 mg/kg. The method, then:
Mice were weighed and divided into total seven groups, and then administered intratracheally with sterile physiological saline in the vehicle control group and with BLM in the other groups than the vehicle control group on Day 1 to induce pulmonary fibrosis. Then, from Day 1 to Day 21, DMSO (sigma D2650-5X) devoid of the effective substance was administered to the vehicle control group and the negative control group (fibrosis control).
In addition, T1 to T4 groups and the positive control group were orally administered with the effective substance (pheophorbide a) and nintedanib, respectively, once daily. […]
Following the administration, the death and the moribund status were observed once daily, and general symptoms such as appearance and behavioral changes were observed twice daily. […] Body weight was measured 7 times in total (Day 1, 2, 4, 8, 11, 15 and 18) during the administration and once on the autopsy day.
On Day 22, the animals were euthanized by isoflurane inhalation and subjected to autopsy. […] The organ weight ratio of the extracted lungs was calculated by using the following calculation formula. […]
The results of the experiments were expressed by the mean and the standard deviation and statistically analyzed using Pristima System or Statistical Analysis System (SAS/STAT).

For the substance pheophorbide a, the “expression of the α-SMA, CTGF and NOX4 genes induced by TGF-β” value in experiment [1] is recorded as “remarkably inhibited”. Also, the “increased expression of collagen 1A induced by TGF-β” value in experiment [2] is given as “remarkably inhibited”. For the same substance, in experiment [3] (BLM 1.8 mg/kg intratracheal, mice), the “anti-fibrotic effect as compared with the negative control group” value is given as “anti-fibrotic effect”. Also, in experiment [3] (nintedanib 60 mg/kg, BLM mice), the “anti-fibrotic effect as compared with the positive control group (nintedanib)” value was “significant anti-fibrotic effect”.
